From patent US9708314B2, “Heterocyclic amide compound” (NISSAN CHEMICAL INDUSTRIES, LTD., priority 2013, dated 2017)

Experiments:
Type in all cases: in vivo
[1] = system: Echinochloa crus-galli var. crus-galli; assay: Test Example 3: herbicidal effect by application to foliage (Wagner pot, water depth 0.1-0.5 cm); conditions: Nineteenth Table, application to foliage
In short: (§1)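 Visual 0–5 rating of herbicidal ratio, taken 3 weeks after foliar spray of a diluted emulsion formulation at rates expressed as g/ha. Plants had been sown in alluvial soil under 0.1–0.5 cm water and grown 14 days at 25–30 °C under glass before application.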

Cyperus difformis = assay: as above; conditions: Nineteenth Table; application to foliage; application herbicide amount 320 g/ha
In short: as §1

Triticum aestivum = assay: Test Example 4: effect on crop by application to foliage (diluvial soil, plastic box); conditions: for effect on crop, e (Triticum aestivum): application to foliage
In short: (§2)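 Seeds sown in sterilized diluvial soil, covered ~1.5 cm, grown 14 days in greenhouse at 25° C. to 30° C. Emulsion formulation diluted in water to set rate (g/ha) and sprayed onto stems and leaves. Effect scored visually 3 weeks later on 0–5 scale (5 = ≥90% herbicidal ratio, 0 = ≤5%).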

[2] = system: directly sowed Oryza sativa; assay: as above; conditions: for effect on crop, d (directly sowed Oryza sativa): application to foliage
In short: as §2

[3] = system: Beta vulgaris ssp. vulgaris; assay: as above; conditions: for effect on crop, f (Beta vulgaris ssp. vulgaris): application to foliage
In short: as §2

Zea mays = assay: as above; conditions: for effect on crop, b (Zea mays): application to foliage
In short: as §2

Brassica campestris L. = assay: as above; conditions: for effect on crop, g (Brassica campestris L.): application to foliage
In short: as §2

Glycine max = assay: as above; conditions: for effect on crop, c (Glycine max): application to foliage
In short: as §2

Leptochloa chinensis = assay: Test Example 3: herbicidal effect by application to foliage (Wagner pot, water depth 0.1-0.5 cm); conditions: Nineteenth Table, application to foliage
In short: as §1

[4] = application herbicide amount 320 g/ha
[5] = application herbicide amount 260 g/ha

Compound | H (herbicidal effect grade) [1, 4] | D (herbicidal effect grade) (Leptochloa chinensis; [4]) | effect on crop, e (Triticum aestivum) (Triticum aestivum; 320 g/ha) | effect on crop, d (directly sowed Oryza sativa) ([2]; 320 g/ha) | effect on crop, f (Beta vulgaris ssp. vulgaris) ([3]; 320 g/ha) | effect on crop, b (Zea mays) (Zea mays; 320 g/ha) | effect on crop, g (Brassica campestris L.) (Brassica campestris L.; 320 g/ha) | effect on crop, c (Glycine max) (Glycine max; 320 g/ha) | further results
CC(C)c1nnc2c(C(=S)Nc3nnnn3C)ccc(C(F)(F)F)n12 [2-039, 3-Isopropyl-N-(1-methyl-1H-tetrazol-5-yl)-5-(trifluoromethyl)-[1,2,4]triazolo[4,3-a]pyridine-8-carbothioamide] | 5 (Herbicidal ratio of 90% or more (almost completely withered)) | – | – | – | – | – | – | – | E (herbicidal effect grade) (Cyperus difformis): 5 (Herbicidal ratio of 90% or more (almost completely withered)); e (Triticum aestivum) effect on crop grade (Triticum aestivum; foliage application, 320 g/ha): 3 (Herbicidal ratio of 40% or more and less than 70%); d (directly sowed Oryza sativa) effect on crop grade ([2]; foliage application, 320 g/ha): 4 (Herbicidal ratio of 70% or more and less than 90%); f (Beta vulgaris ssp. vulgaris) effect on crop grade ([3]; foliage application, 320 g/ha): 5 (Herbicidal ratio of 90% or more (almost completely withered)); b (Zea mays) effect on crop grade (Zea mays; foliage application, 320 g/ha): 4 (Herbicidal ratio of 70% or more and less than 90%); g (Brassica campestris L.) effect on crop grade (Brassica campestris L.; foliage application, 320 g/ha): 5 (Herbicidal ratio of 90% or more (almost completely withered)); c (Glycine max) effect on crop grade (Glycine max; foliage application, 320 g/ha): 3 (Herbicidal ratio of 40% or more and less than 70%)
C=CCSc1nnc2c(C(=O)Nc3nnnn3C)ccc(C(F)(F)F)n12 [2-102] | 5 (Herbicidal ratio of 90% or more (almost completely withered)) | 4 (Herbicidal ratio of 70% or more and less than 90%) | 1 (Herbicidal ratio of 5% or more and less than 20%) | 4 (Herbicidal ratio of 70% or more and less than 90%) | 5 (Herbicidal ratio of 90% or more (almost completely withered)) | 1 (Herbicidal ratio of 5% or more and less than 20%) | 3 (Herbicidal ratio of 40% or more and less than 70%) | 0 (Herbicidal ratio of 5% or less (almost no effect)) | –
C#CCSc1nnc2c(C(=O)Nc3nnnn3C)ccc(C(F)(F)F)n12 [2-103] | 5 (Herbicidal ratio of 90% or more (almost completely withered)) | 5 (Herbicidal ratio of 90% or more (almost completely withered)) | 0 (Herbicidal ratio of 5% or less (almost no effect)) | 4 (Herbicidal ratio of 70% or more and less than 90%) | 5 (Herbicidal ratio of 90% or more (almost completely withered)) | 2 (Herbicidal ratio of 20% or more and less than 40%) | 3 (Herbicidal ratio of 40% or more and less than 70%) | 0 (Herbicidal ratio of 5% or less (almost no effect)) | –
CC#Cc1nnc2c(C(=O)Nc3nnnn3C)ccc(C(F)(F)F)n12 [2-106] | 1 (Herbicidal ratio of 5% or more and less than 20%) | 2 (Herbicidal ratio of 20% or more and less than 40%) | 0 (Herbicidal ratio of 5% or less (almost no effect)) | 4 (Herbicidal ratio of 70% or more and less than 90%) | 5 (Herbicidal ratio of 90% or more (almost completely withered)) | 0 (Herbicidal ratio of 5% or less (almost no effect)) | 3 (Herbicidal ratio of 40% or more and less than 70%) | 0 (Herbicidal ratio of 5% or less (almost no effect)) | –
CC(=O)OCc1nnc2c(C(=O)Nc3nnnn3C)ccc(C(F)(F)F)n12 [2-107] | 4 (Herbicidal ratio of 70% or more and less than 90%) | 5 (Herbicidal ratio of 90% or more (almost completely withered)) | 0 (Herbicidal ratio of 5% or less (almost no effect)) | 5 (Herbicidal ratio of 90% or more (almost completely withered)) | 5 (Herbicidal ratio of 90% or more (almost completely withered)) | 3 (Herbicidal ratio of 40% or more and less than 70%) | 4 (Herbicidal ratio of 70% or more and less than 90%) | 0 (Herbicidal ratio of 5% or less (almost no effect)) | –
Cn1nnnc1NC(=O)c1ccc(C(F)(F)F)n2c(CO)nnc12 [2-108] | 4 (Herbicidal ratio of 70% or more and less than 90%) | 5 (Herbicidal ratio of 90% or more (almost completely withered)) | 1 (Herbicidal ratio of 5% or more and less than 20%) | 4 (Herbicidal ratio of 70% or more and less than 90%) | 5 (Herbicidal ratio of 90% or more (almost completely withered)) | 4 (Herbicidal ratio of 70% or more and less than 90%) | 5 (Herbicidal ratio of 90% or more (almost completely withered)) | 0 (Herbicidal ratio of 5% or less (almost no effect)) | –
Cn1nnnc1NC(=O)c1ccc(C(F)(F)F)n2c(C=O)nnc12 [2-109] | – | – | – | – | – | – | – | – | D (herbicidal effect grade) (Leptochloa chinensis; [5]): 5 (Herbicidal ratio of 90% or more (almost completely withered)); H (herbicidal effect grade) [1, 5]: 3 (Herbicidal ratio of 40% or more and less than 70%); effect on crop, e (Triticum aestivum) (Triticum aestivum; 256 g/ha): 1 (Herbicidal ratio of 5% or more and less than 20%); effect on crop, d (directly sowed Oryza sativa) ([2]; 256 g/ha): 4 (Herbicidal ratio of 70% or more and less than 90%); effect on crop, f (Beta vulgaris ssp. vulgaris) ([3]; 256 g/ha): 5 (Herbicidal ratio of 90% or more (almost completely withered)); effect on crop, b (Zea mays) (Zea mays; 256 g/ha): 1 (Herbicidal ratio of 5% or more and less than 20%); effect on crop, g (Brassica campestris L.) (Brassica campestris L.; 256 g/ha): 4 (Herbicidal ratio of 70% or more and less than 90%); effect on crop, c (Glycine max) (Glycine max; 256 g/ha): 0 (Herbicidal ratio of 5% or less (almost no effect))
Cn1nnnc1NC(=O)c1ccc(C(F)(F)F)n2c(C3(C)CC3(Cl)Cl)nnc12 (stereo not drawn) [2-110] | 5 (Herbicidal ratio of 90% or more (almost completely withered)) | 5 (Herbicidal ratio of 90% or more (almost completely withered)) | 3 (Herbicidal ratio of 40% or more and less than 70%) | 4 (Herbicidal ratio of 70% or more and less than 90%) | 5 (Herbicidal ratio of 90% or more (almost completely withered)) | 4 (Herbicidal ratio of 70% or more and less than 90%) | 4 (Herbicidal ratio of 70% or more and less than 90%) | 0 (Herbicidal ratio of 5% or less (almost no effect)) | –
Cc1nnc(NC(=O)c2ccc(C(F)(F)F)n3nc(C(C)C)nc23)o1 [7-001] | 1 (Herbicidal ratio of 5% or more and less than 20%) | 2 (Herbicidal ratio of 20% or more and less than 40%) | 0 (Herbicidal ratio of 5% or less (almost no effect)) | 0 (Herbicidal ratio of 5% or less (almost no effect)) | 0 (Herbicidal ratio of 5% or less (almost no effect)) | 0 (Herbicidal ratio of 5% or less (almost no effect)) | 0 (Herbicidal ratio of 5% or less (almost no effect)) | 0 (Herbicidal ratio of 5% or less (almost no effect)) | –
